Converted amounts (≈) assume the structure as drawn.
Tests used:
Assay in all cases: in vitro antibacterial evaluation, MIC by broth dilution
Format in all cases: cell-based
[1] = test system: Enterococcus sp.; details: broth dilution, 18 hours at 35° C.
Procedure, shortened: (§1)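 Test organisms, which included recent clinical isolates resistant to methicillin, penicillin and/or vancomycin, were inoculated at 5×10^5 CFU/mL into Muller-Hinton II […] containing antibiotic at 64-0.06 μg/mL. Minimum inhibitory concentrations were then read as the lowest level inhibiting growth.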

[2] = test system: Streptococcus sp.; details: broth dilution, 18 hours at 35° C.
Procedure, shortened: as §1

[3] = test system: Staphylococcus sp.; details: broth dilution, 18 hours at 35° C.
Procedure, shortened: as §1

[4] = test system: Escherichia coli; details: 18 hours at 35° C.
Procedure, shortened: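 MIC is the lowest antibiotic concentration (tested 64-0.06 μg/mL) preventing growth of a 5×10^5 CFU/mL inoculum. Determined by broth dilution in Mueller-Hinton II medium following NCCLS standard M7-A2.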

CC(c1ccccc1)C1NC(=O)CNC(=O)C(CO)NC(=O)C(C(O)C2CN(Cc3ccccc3)C(=NCc3ccccc3)N2C2OC(CO)C(O)C(O)C2O)NC(=O)C(C(O)C2CN(Cc3ccccc3)C(=NCc3ccccc3)N2Cc2ccccc2)NC(=O)C(Cc2ccc(OC3OC(CO)C(OC4OC5COC6(OC5C(O)C4O)C4CC5CC(C4)CC6C5)C(O)C3O)cc2)NC1=O (stereo not drawn) [Example 79, Cyclo[glycyl-β-methylphenylalanyl-O-[4-O-[4,6-O-(2-adamantylidene)hexotpyranosyl]hexopyranosyl]tyrosyl-3-[1,3-dibenzyl-2-(benzylimino)imidazolidin-4-yl]seryl-3-[1-benzyl-2-(benzylimino)-3-hexopyranosylimidazolidin-4-yl]serylseryl]]
MIC Enterococcus avium (GC 4558) ([1]; Enterococcus avium (GC 4558)): 2 µg/mL (≈ 1.06 µM) | MIC Enterococcus faecalis (ATCC 29212) ([1]; Enterococcus faecalis (ATCC 29212)): 8 µg/mL (≈ 4.26 µM) | MIC Enterococcus faecalis (GC 4552) ([1]; Enterococcus faecalis (GC 4552)): 32 µg/mL (≈ 17 µM) | MIC Enterococcus faecalis (GC 4553) ([1]; Enterococcus faecalis (GC 4553)): 4 µg/mL (≈ 2.13 µM) | MIC Enterococcus faecalis (GC 4554) ([1]; Enterococcus faecalis (GC 4554)): 16 µg/mL (≈ 8.52 µM) | MIC Enterococcus faecalis (GC 6189) ([1]; Enterococcus faecalis (GC 6189)): 8 µg/mL (≈ 4.26 µM) | MIC Enterococcus faecium (GC 2243) ([1]; Enterococcus faecium (GC 2243)): 8 µg/mL (≈ 4.26 µM) | MIC Enterococcus faecium (GC 4556) ([1]; Enterococcus faecium (GC 4556)): 32 µg/mL (≈ 17 µM) | MIC Enterococcus faecium (GC 4557) ([1]; Enterococcus faecium (GC 4557)): 4 µg/mL (≈ 2.13 µM) | MIC Enterococcus avium (GC 4558) [1]: 2 µg/mL (≈ 1.06 µM) | MIC Enterococcus faecalis (ATCC 29212) [1]: 8 µg/mL (≈ 4.26 µM) | MIC Enterococcus faecalis (GC 2242) [1]: 16 µg/mL (≈ 8.52 µM) | MIC Enterococcus faecalis (GC 2691) [1]: 8 µg/mL (≈ 4.26 µM) | MIC Enterococcus faecalis (GC 3059) [1]: 32 µg/mL (≈ 17 µM) | MIC Enterococcus faecalis (GC 4552) [1]: 32 µg/mL (≈ 17 µM) | MIC Enterococcus faecalis (GC 4553) [1]: 4 µg/mL (≈ 2.13 µM) | MIC Enterococcus faecalis (GC 4554) [1]: 16 µg/mL (≈ 8.52 µM) | MIC Enterococcus faecalis (GC 6189) [1]: 8 µg/mL (≈ 4.26 µM) | MIC Enterococcus faecium (GC 2243) [1]: 8 µg/mL (≈ 4.26 µM) | MIC Enterococcus faecium (GC 4556) [1]: 32 µg/mL (≈ 17 µM) | MIC Enterococcus faecium (GC 4557) [1]: 4 µg/mL (≈ 2.13 µM) | MIC Enterococcus faecalis (GC 2242) ([1]; strain GC 2242): 16 µg/mL (≈ 8.52 µM) | MIC Enterococcus faecalis (GC 2691) ([1]; strain GC 2691): 8 µg/mL (≈ 4.26 µM) | MIC Enterococcus faecalis (GC 3059) ([1]; strain GC 3059): 32 µg/mL (≈ 17 µM) | MIC Streptococcus agalactiae (GC 4564) [2]: 4 µg/mL (≈ 2.13 µM) | MIC Streptococcus pneumoniae (ATCC 6301) [2]: 4 µg/mL (≈ 2.13 µM) | MIC Streptococcus pneumoniae (GC 1894) [2]: 8 µg/mL (≈ 4.26 µM) | MIC Streptococcus pneumoniae (GC 4565) [2]: 8 µg/mL (≈ 4.26 µM) | MIC Streptococcus pyogenes (GC 4563) [2]: 4 µg/mL (≈ 2.13 µM) | MIC Streptococcus pneumoniae (ATCC 6301) ([2]; strain ATCC 6301): 4 µg/mL (≈ 2.13 µM) | MIC Streptococcus pneumoniae (GC 1894) ([2]; strain GC 1894): 8 µg/mL (≈ 4.26 µM) | MIC Streptococcus pyogenes (GC 4563) ([2]; strain GC 4563): 4 µg/mL (≈ 2.13 µM) | MIC Streptococcus agalactiae (GC 4564) ([2]; strain GC 4564): 4 µg/mL (≈ 2.13 µM) | MIC Streptococcus pneumoniae (GC 4565) ([2]; strain GC 4565): 8 µg/mL (≈ 4.26 µM) | MIC Staphylococcus aureus (ATCC 29213) ([3]; strain ATCC 29213): 4 µg/mL (≈ 2.13 µM) | MIC Staphylococcus aureus (GC 1131) ([3]; strain GC 1131): 8 µg/mL (≈ 4.26 µM) | MIC Staphylococcus aureus (GC 3051) ([3]; strain GC 3051): 4 µg/mL (≈ 2.13 µM) | MIC Staphylococcus aureus (GC 3053) ([3]; strain GC 3053): 4 µg/mL (≈ 2.13 µM) | MIC Staphylococcus aureus (GC 4541) ([3]; strain GC 4541): 4 µg/mL (≈ 2.13 µM) | MIC Staphylococcus aureus (GC 4542) ([3]; strain GC 4542): 4 µg/mL (≈ 2.13 µM) | MIC Staphylococcus aureus-SMITH (GC 4543) ([3]; strain GC 4543): 4 µg/mL (≈ 2.13 µM) | MIC Staphylococcus aureus (GC 4544) ([3]; strain GC 4544): 8 µg/mL (≈ 4.26 µM) | MIC Staphylococcus aureus (GC 4545) ([3]; strain GC 4545): 4 µg/mL (≈ 2.13 µM) | MIC Staphylococcus haemolyticus (GC 4546) ([3]; strain GC 4546): 4 µg/mL (≈ 2.13 µM) | MIC Coagulase Negative Staphylococcus (GC 4547) ([3]; strain GC 4547): 4 µg/mL (≈ 2.13 µM) | MIC Coagulase Negative Staphylococcus (GC 4548) ([3]; strain GC 4548): 4 µg/mL (≈ 2.13 µM) | MIC Coagulase Negative Staphylococcus (GC 4549) ([3]; strain GC 4549): 2 µg/mL (≈ 1.06 µM) | MIC Coagulase Negative Staphylococcus (GC 4551) ([3]; strain GC 4551): 4 µg/mL (≈ 2.13 µM) | MIC Coagulase Negative Staphylococcus (GC 6257) ([3]; strain GC 6257): 4 µg/mL (≈ 2.13 µM) | MIC Escherichia coli (ATCC 25922) [4]: >128 µg/mL | MIC Escherichia coli (GC 4559) [4]: >128 µg/mL | MIC Escherichia coli (GC 4560) [4]: 2 µg/mL (≈ 1.06 µM)
